With `O=c1c2ncn(COCCO)c2nc2[nH]c(-c3ccc(Cl)s3)cn12` [compound 2, 3-(2-Hydroxy-ethoxymethyl)-6-(5-chloro-thiophen-2-yl)-3,5-dihydro-1,3,4,5,7a-pentaaza-s-indacen-8-one] as the molecule, how does the melting point read?
Its melting point is 226 to 228 °C.
